Source: the supplement of paper PMC10307832

Assays:
Experiment in all cases: relative viability (nuclei count vs DMSO), 5 days (fraction); higher = more cells survive
BX 795 = compound: O=C(NCCCNc1nc(Nc2cccc(NC(=O)N3CCCC3)c2)ncc1I)c1cccs1 [BX 795]
Summary of the method: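 Viability is treated-well nuclei as a fraction of vehicle-well nuclei, reported as the median across plates. Before counting, lung cancer cell lines were kept overnight at 37 °C in 1536-well plates, pinned with five √10-spaced library-drug doses on vehicle-anchored plates, and left 5 days without medium change, then fixed, permeabilised and Hoechst-stained in one step, imaged at 4× and counted by MetaXpress. A plate passed only if control CV was below 25% and at least one doubling occurred.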

BX 795 + Linsitinib = compound: O=C(NCCCNc1nc(Nc2cccc(NC(=O)N3CCCC3)c2)ncc1I)c1cccs1 [BX 795] + C[C@]1(O)C[C@@H](c2nc(-c3ccc4ccc(-c5ccccc5)nc4c3)c3c(N)nccn32)C1 [Linsitinib] (partner 1 µM)
Summary of the method: (§1)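 Each reported value is a median over duplicate plates. It expresses relative viability: treated-well nuclei count divided by vehicle-well nuclei count. Lung cancer cell lines in 1536-well plates were dosed by pin tool a day after seeding, alone with one drug or with a fixed anchor-drug dose plus five library-drug doses (not always all listed) in √10 steps, and nuclei were counted after 5 days.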

BX 795 + AZD7762 = compound: O=C(NCCCNc1nc(Nc2cccc(NC(=O)N3CCCC3)c2)ncc1I)c1cccs1 [BX 795] + NC(=O)Nc1cc(-c2cccc(F)c2)sc1C(=O)N[C@H]1CCCNC1 [AZD7762] (partner 0.2 µM)
Summary of the method: as §1

BX 795 + Tozasertib = compound: O=C(NCCCNc1nc(Nc2cccc(NC(=O)N3CCCC3)c2)ncc1I)c1cccs1 [BX 795] + Cc1cc(Nc2cc(N3CCN(C)CC3)nc(Sc3ccc(NC(=O)C4CC4)cc3)n2)n[nH]1 [Tozasertib] (partner 0.1 µM)
Summary of the method: as §1

BX 795 + OSI-027 = compound: O=C(NCCCNc1nc(Nc2cccc(NC(=O)N3CCCC3)c2)ncc1I)c1cccs1 [BX 795] + COc1cccc2cc(-c3nc([C@H]4CC[C@H](C(=O)O)CC4)n4ncnc(N)c34)[nH]c12 [OSI-027] (partner 0.5 µM)
Summary of the method: as §1

Cell Line	relative viability (BX 795; 0.04 µM)	relative viability (BX 795; 0.1265 µM)	relative viability (BX 795; 0.4 µM)	relative viability (BX 795; 1.265 µM)	relative viability (BX 795 + Linsitinib; first compound 0.04 µM)	relative viability (BX 795 + Linsitinib; first compound 0.1265 µM)	relative viability (BX 795 + Linsitinib; first compound 0.4 µM)	relative viability (BX 795 + Linsitinib; first compound 1.265 µM)	relative viability (BX 795 + AZD7762; first compound 0.04 µM)	relative viability (BX 795 + AZD7762; first compound 0.1265 µM)	relative viability (BX 795 + AZD7762; first compound 0.4 µM)	relative viability (BX 795 + AZD7762; first compound 1.265 µM)	relative viability (BX 795 + Tozasertib; first compound 0.04 µM)	relative viability (BX 795 + Tozasertib; first compound 0.1265 µM)	relative viability (BX 795 + Tozasertib; first compound 0.4 µM)	relative viability (BX 795 + Tozasertib; first compound 1.265 µM)	relative viability (BX 795 + OSI-027; first compound 0.04 µM)	relative viability (BX 795 + OSI-027; first compound 0.1265 µM)	relative viability (BX 795 + OSI-027; first compound 0.4 µM)	relative viability (BX 795 + OSI-027; first compound 1.265 µM)
EKVX	0.934	0.975	0.883	0.93	1.1	1.21	0.833	0.839	0.67	0.805	0.671	0.645	0.38	0.471	0.358	0.331	0.657	0.649	0.63	0.603
EMC-BAC-2	0.978	0.843	0.951	0.633	0.79	0.888	0.83	0.615	1.06	1.09	0.945	0.727	0.277	0.362	0.258	0.175	0.413	0.404	0.377	0.273
EPLC-272H	1.01	0.899	0.885	0.748	1.33		1.06	0.972	0.215	0.337	0.234	0.259	0.349	0.277	0.294	0.228	0.297	0.291	0.304	0.336
H3255	0.985	1.07	1.02	0.949	1.04	1.07	1.05	0.842	0.933	0.869	0.846	0.859	0.716	0.605	0.773	0.55	0.581	0.605	0.629	0.51
HARA	0.921	0.81	0.975	0.947	0.896	0.966	0.916	0.795	0.149	0.301	0.286	0.387	0.124	0.0907	0.0944	0.0873	0.598	0.494	0.701	0.41
HCC-15	0.967	1.05	0.973	0.804	0.915	0.964	0.937	0.675	1.21	1.26	1.27	1.18	0.444	0.359	0.482	0.246	0.627	0.755	0.717	0.474
HCC-44	0.908	0.967	1.07	1.06	0.648	0.668	0.787	0.426	0.976	1	1.09	1.09	0.934	1.05	0.581	0.351	0.483	0.472	0.564	0.45
HCC-78	1.1	1	1.01	0.933	0.624	0.657	0.534	0.554	0.583	0.631	0.606	0.594	0.472	0.317	0.345	0.386	0.363	0.369	0.393	0.363
